Laboratory results published in patent publication US5278308A, “Iodine derivatives of tetrabenazine” (The Trustees of The University of Pennsylvania, priority 1992, dated 1994).
Where two headings read alike, the source gives them in different places.

What was measured:
[1] = Protein binding by Filter (50% rat plasma, Amicon micropartition system); format: in vitro ADME; conditions: rat, 50% plasma, 30 min, 37° C.
Experimental: One mL of rat plasma (50%) was mixed with [^123 I]I-TBZ in a test tube. After 30 min incubation at 37° C., 50 uL ×3 of liquid was removed as initial dose standard (I.D.); the rest was passed through an Amicon micropartition system (Amicon division, W. R. Grace, Danvers, Mass.) by centrifuging for 20 minutes (2,000 rpm) at 0° C. Four samples (50 uL each) were removed from the filtered solution and counted. The protein binding (% bound) was calculated by using the unit counts in filtrate divided by unit counts in ID.

[2] = Protein binding by TCA (10% rat plasma, 30 min, 37° C.); format: in vitro ADME; conditions: rat, 10% plasma, TCA precipitation
Experimental: One ml of 10% rat plasma was mixed with [^123 I]I-TBZ in a test tube and the mixture was incubated for 30 minutes at 37° C. To the mixture 0.4 mL of 10% trichloroacetic acid (TCA) was added. The test tube was centrifuged for 10 min. (4,000 rpm), and the top aqueous layer was removed to another test tube for counting The precipitate was washed with water (0.5 mL×2). The combined water and top aqueous layer was counted. The residual precipitate was also counted. The protein binding was obtained by dividing counts in precipitate with counts in aqueous layers.

[3] = Biodistribution in rats (iv injection); format: in vivo; conditions: rat, iv
Experimental: While under ether anesthesia, each rat was injected in the femoral vein with 0.2 mL saline solution containing [^123 I]I-TBZ (1-5uCi) either racemic mixture, peak-A or peak-B. The rats were sacrificed at various time points postinjection by cardiac excision. The tissues were weighed and the radioactivity was measured with a Canberra gamma counter (Model 5000). The percent dose per organ was calculated by a comparison of the tissue counts to suitably diluted aliquots of the injected material. Total activities of blood and muscle were calculated assuming that they were 7% and 40% of total body weight, respectively Results are presented in Tables 3, 4A and 4B.

[4] = Regional brain distribution in rats (dissection, iv injection); format: in vivo; conditions: for Str./Cb (% dose/gram ratio) / Regional brain uptake, Rem / Regional brain uptake, cerebellum / Regional brain uptake, cortex / Regional brain uptake, hippocampus / Regional brain uptake, striatum / tissue uptake at 5 min / tissue uptake at 20 min: rat
Experimental: Regional brain distribution of [^123 I]I-TBZ (with either a racemic mixture, peak A or B) in rats was obtained after an iv injection. By dissecting, weighing and counting samples from different brain regions (cortex, striatum, hippocampus and cerebellum), % dose/gram of the samples was calculated by comparing the sample counts with the counts of the diluted initial dose. The ratio of uptake in each region was obtained by dividing % dose/gram of each region with that of the cerebellum. The effect of tetrahydrobenazine on the uptake of peak A or peak B was investigated by pretreating the rats with the TBZ 3 mg/rat at 3 min before iv injection of [^123 I]I-TBZ. At 20 min. post injection the rats were dissected and the regional brain dissection was carried out as above.

[5] = up to 300 mg daily, several trials; cited from earlier work
[6] = tested on: monoamine uptake-storage mechanism of amine granules in the synapse; conditions: in vivo; cited from earlier work
[7] = 20 min, pretreated with TBZ 3 min before, n = 2
[8] = 120 min, listed as I-TBZ peak A

Molecule `COc1cc2c(cc1OC)C1CC(O)(C=C[123I])C(CC(C)C)CN1CC2` (single isomer, unassigned) [Peak A] has a fraction unbound at 0.5 h [1] of 0.182, a fraction unbound at 0.5 h [2] of 0.619 and a Brain uptake ([3]; 2 min) of 1.2 % Dose/organ. The “Blood uptake (blood assumed 7% of body weight)” value ([3]; 5 min) was 2.15 ± 0.11 % Dose/organ, the “Br/Bl (% dose/gram ratio)” value ([3]; 5 min) was 5.51 ± 0.37 and the Brain uptake ([3]; 5 min) was 1.12 ± 0.15 % Dose/organ. It also gave a Heart uptake ([3]; 5 min) of 0.91 ± 0.17 % Dose/organ, a Kidney uptake ([3]; 5 min) of 4.43 ± 0.56 % Dose/organ and a Liver uptake ([3]; 5 min) of 21.23 ± 2.66 % Dose/organ. For the same molecule, the Lung uptake ([3]; 5 min) was 2.85 ± 0.52 % Dose/organ, the “Muscle uptake (muscle assumed 40% of body weight)” value ([3]; 5 min) was 11.96 ± 1.56 % Dose/organ and the Skin uptake ([3]; 5 min) was 8.72 ± 1.52 % Dose/organ. For the same molecule, the Spleen uptake ([3]; 5 min) was 0.62 ± 0.13 % Dose/organ, the Thyroid uptake ([3]; 5 min) was 0.08 ± 0.01 % Dose/organ and the “Blood uptake (blood assumed 7% of body weight)” value ([3]; 20 min) was 1.42 ± 0.56 % Dose/organ. For the same molecule, the “Br/Bl (% dose/gram ratio)” value ([3]; 20 min) was 4.59 ± 1.10, the Brain uptake ([3]; 20 min) was 0.58 ± 0.01 % Dose/organ and the Heart uptake ([3]; 20 min) was 0.49 ± 0.04 % Dose/organ. For the same molecule, the Kidney uptake ([3]; 20 min) was 2.21 ± 0.11 % Dose/organ, the Liver uptake ([3]; 20 min) was 16.16 ± 4.71 % Dose/organ and the Lung uptake ([3]; 20 min) was 1.65 ± 0.11 % Dose/organ. For the same molecule, the “Muscle uptake (muscle assumed 40% of body weight)” value ([3]; 20 min) was 26.79 ± 7.14 % Dose/organ, the Skin uptake ([3]; 20 min) was 9.00 ± 5.10 % Dose/organ and the Spleen uptake ([3]; 20 min) was 0.44 ± 0.06 % Dose/organ. The Thyroid uptake ([3]; 20 min) was 0.05 ± 0.01 % Dose/organ, the “Blood uptake (blood assumed 7% of body weight)” value [3, 7] was 2.05 ± 0.21 % Dose/organ and the “Br/Bl (% dose/gram ratio)” value [3, 7] was 4.10 ± 0.27. For the same molecule, the Brain uptake [3, 7] was 0.85 ± 0.12 % Dose/organ, the Heart uptake [3, 7] was 0.61 ± 0.11 % Dose/organ and the Kidney uptake [3, 7] was 2.03 ± 0.24 % Dose/organ. The Liver uptake [3, 7] was 13.34 ± 4.06 % Dose/organ, the Lung uptake [3, 7] was 1.74 ± 0.002 % Dose/organ and the “Muscle uptake (muscle assumed 40% of body weight)” value [3, 7] was 29.70 ± 2.56 % Dose/organ. It also gave a Skin uptake [3, 7] of 7.08 ± 2.33 % Dose/organ, a Spleen uptake [3, 7] of 0.06 ± 0.07 % Dose/organ and a Thyroid uptake [3, 7] of 0.08 ± 0.01 % Dose/organ. For the same molecule, the “Blood uptake (blood assumed 7% of body weight)” value ([3]; 60 min) was 1.14 ± 0.16 % Dose/organ, the “Br/Bl (% dose/gram ratio)” value ([3]; 60 min) was 3.05 ± 0.12 and the Brain uptake ([3]; 60 min) was 0.33 ± 0.07 % Dose/organ. It also gave a Heart uptake ([3]; 60 min) of 0.38 ± 0.07 % Dose/organ, a Kidney uptake ([3]; 60 min) of 1.52 ± 0.28 % Dose/organ and a Liver uptake ([3]; 60 min) of 10.12 ± 1.26 % Dose/organ. The Lung uptake ([3]; 60 min) was 1.17 ± 0.06 % Dose/organ, the “Muscle uptake (muscle assumed 40% of body weight)” value ([3]; 60 min) was 21.88 ± 2.74 % Dose/organ and the Skin uptake ([3]; 60 min) was 14.76 ± 4.35 % Dose/organ. The Spleen uptake ([3]; 60 min) was 0.36 ± 0.04 % Dose/organ, the Thyroid uptake ([3]; 60 min) was 0.07 ± 0.01 % Dose/organ and the “Blood uptake (blood assumed 7% of body weight)” value ([3]; 120 min) was 0.95 ± 0.03 % Dose/organ. The “Br/Bl (% dose/gram ratio)” value ([3]; 120 min) was 1.96 ± 0.43, the Brain uptake ([3]; 120 min) was 0.18 ± 0.04 % Dose/organ and the Heart uptake ([3]; 120 min) was 0.26 ± 0.03 % Dose/organ. For the same molecule, the Kidney uptake ([3]; 120 min) was 1.05 ± 0.1q, the Liver uptake ([3]; 120 min) was 7.54 ± 0.77 % Dose/organ and the Lung uptake ([3]; 120 min) was 0.81 ± 0.14 % Dose/organ. The “Muscle uptake (muscle assumed 40% of body weight)” value ([3]; 120 min) was 18.56 ± 2.34 % Dose/organ, the Skin uptake ([3]; 120 min) was 11.22 ± 3.92 % Dose/organ and the Spleen uptake ([3]; 120 min) was 0.23 ± 0.04 % Dose/organ. The Thyroid uptake ([3]; 120 min) was 0.07 ± 0.05 % Dose/organ, the “Regional distribution / selectivity in rat brain (in words)” value [4] was “significantly increased selective regional distribution” and the “Str./Cb (% dose/gram ratio)” value ([4]; 5 min, listed as I-TBZ peak A) was 1.09. For the same molecule, the “Regional brain uptake, Rem” value ([4]; 20 min, listed as I-TBZ peak A) was 0.395 ± 0.019 % Dose/g, the “Regional brain uptake, cerebellum” value ([4]; 20 min, listed as I-TBZ peak A) was 0.362 ± 0.017 % Dose/g and the “Regional brain uptake, cortex” value ([4]; 20 min, listed as I-TBZ peak A) was 0.420 ± 0.031 % Dose/g. For the same molecule, the “Regional brain uptake, hippocampus” value ([4]; 20 min, listed as I-TBZ peak A) was 0.414 ± 0.032 % Dose/g, the “Regional brain uptake, striatum” value ([4]; 20 min, listed as I-TBZ peak A) was 0.479 ± 0.014 % Dose/g and the “Str./Cb (% dose/gram ratio)” value ([4]; 20 min, listed as I-TBZ peak A) was 1.32. For the same molecule, the “Str./Cb (% dose/gram ratio)” value [4, 7] was 1.12, the “Regional brain uptake, Rem” value ([4]; 60 min, listed as I-TBZ peak A) was 0.229 ± 0.036 % Dose/g and the “Regional brain uptake, cerebellum” value ([4]; 60 min, listed as I-TBZ peak A) was 0.225 ± 0.029 % Dose/g. The “Regional brain uptake, cortex” value ([4]; 60 min, listed as I-TBZ peak A) was 0.234 ± 0.035 % Dose/g, the “Regional brain uptake, hippocampus” value ([4]; 60 min, listed as I-TBZ peak A) was 0.230 ± 0.048 % Dose/g and the “Regional brain uptake, striatum” value ([4]; 60 min, listed as I-TBZ peak A) was 0.271 ± 0.046 % Dose/g. For the same molecule, the “Str./Cb (% dose/gram ratio)” value ([4]; 60 min, listed as I-TBZ peak A) was 1.21, the “Regional brain uptake, Rem” value [4, 8] was 0.118 ± 0.022 % Dose/g and the “Regional brain uptake, cerebellum” value [4, 8] was 0.116 ± 0.026 % Dose/g. For the same molecule, the “Regional brain uptake, cortex” value [4, 8] was 0.129 ± 0.019 % Dose/g, the “Regional brain uptake, hippocampus” value [4, 8] was 0.113 ± 0.041 % Dose/g and the “Regional brain uptake, striatum” value [4, 8] was 0.138 ± 0.022 % Dose/g. For the same molecule, the “Str./Cb (% dose/gram ratio)” value [4, 8] was 1.19, the tissue uptake at 5 min ([4]; brain remainder, 5 min, read-out: Regional brain uptake, Rem) was 0.74 ± 0.063 %ID/g and the tissue uptake at 20 min ([4]; brain remainder, 20 min, pretreated with TBZ 3 min before, n = 2, read-out: Regional brain uptake, Rem) was 0.545 ± 0.047 %ID/g. For the same molecule, the tissue uptake at 5 min ([4]; cerebellum, 5 min, read-out: Regional brain uptake, cerebellum) was 0.708 ± 0.044 %ID/g, the tissue uptake at 20 min ([4]; cerebellum, 20 min, pretreated with TBZ 3 min before, n = 2, read-out: Regional brain uptake, cerebellum) was 0.534 ± 0.032 %ID/g and the tissue uptake at 5 min ([4]; cortex, 5 min, read-out: Regional brain uptake, cortex) was 0.792 ± 0.096 %ID/g. The tissue uptake at 20 min ([4]; cortex, 20 min, pretreated with TBZ 3 min before, n = 2, read-out: Regional brain uptake, cortex) was 0.585 ± 0.067 %ID/g, the tissue uptake at 5 min ([4]; hippocampus, 5 min, read-out: Regional brain uptake, hippocampus) was 0.725 ± 0.066 %ID/g and the tissue uptake at 20 min ([4]; hippocampus, 20 min, pretreated with TBZ 3 min before, n = 2, read-out: Regional brain uptake, hippocampus) was 0.581 ± 0.075 %ID/g. For the same molecule, the tissue uptake at 5 min ([4]; striatum, 5 min, read-out: Regional brain uptake, striatum) was 0.77 ± 0.019 %ID/g and the tissue uptake at 20 min ([4]; striatum, 20 min, pretreated with TBZ 3 min before, n = 2, read-out: Regional brain uptake, striatum) was 0.596 %ID/g.
In the case of `COc1cc2c(cc1OC)C1CC(=O)C(CC(C)C)CN1CC2` (centres unmarked) [TBZ, 3-(2-methylpropyl)-9,10-dimethoxy-1,3,4,6,7,11b-hexahydro-2H-benzo[a]quinolizin-2-one], the “Effect on tardive dyskinesia in patients (in words)” value [5] is listed as “improved tardive dyskinesia”, the “Duration of depletion of catecholamines and serotonin in the brain (in words)” value [6] is listed as “shorter duration” and the “Irreversible damage to storage mechanism / neurons (in words)” value [6] is listed as “do not cause irreversible damage to neurons”.
